In patent publication US5834301A, “Method of removing color from kraft wood pulps” (priority 1995, dated 1998):

Columns and labels:
Type in all cases: biochemical
Details in all cases: 1 mM reagent
[1] = tested on: Streptomyces sp. TUB B-12-2 endoxylanase xyl 1a
Description: (§1) Xylanase activity was routinely determined by measuring the release of reducing sugars from either 1% (w/v) alkali-soluble or water soluble oat-spelt xylan, using the Somogyi's modification Nelson method (NS) as previously described. Crude or purified enzyme preparations were diluted appropriately to obtain maximal activity consistent with a linear response. For comparative purposes, xylanase activities were measured against 1% (w/v) water soluble and water insoluble xylan from either oat-spelts or birch (Sigma). The dinitrosalicylic acid (DNS) method of Miller, Anal. Chem., 31:426-429 (1959) was used to assay xylanase activity during initial screening. Carboxymethylcellulase activity (CMCase) was assayed by replacing 1% xylan with 1% of low viscosity carboxymethyl cellulose (Sigma). Acetylated glucuronoxylan was recovered from birch wood flakes by hot water extraction. β-Xylosidase was assayed as described by Bachmann and McCarthy, J. Gen. Microbiol., 135:293-299 (1989) using 5 mM p-nitrophenyl-β-D-xylopyranoside in 50 mM potassium phosphate buffer at pH 7.0. The values of the Michaelis constant (Km) and the maximum velocity (Vmax) were determined from a Lineweaver-Burke plot of assayed activities over a range of substrate concentrations. Suitably diluted xylanases were incubated with alkali-soluble birch wood or oat spelt xylan at concentrations ranging from 0.5 to 10 mg/ml under the assay conditions given.
(§2) f. Effectors. We investigated the effects of 1 mM metal ions and other agents on the activities of purified endoxylanases (Table 14).

[2] = tested on: Streptomyces sp. TUB B-12-2 endoxylanase xyl 1b
Description: as §1, §2

[3] = tested on: Streptomyces sp. TUB B-12-2 endoxylanase xyl 2
Description: as §1, §2

[4] = tested on: Streptomyces sp. TUB B-12-2 endoxylanase xyl 3
Description: as §1, §2

[5] = tested on: Streptomyces sp. TUB B-12-2 endoxylanase xyl 4
Description: as §1, §2

Molecule | Relative activity (%) xyl 1a [1] [%] | Effect on activity of xyl 1b (in words) [2] | Relative activity (%) xyl 1b [2] [%] | Relative activity (%) xyl 2 [3] [%] | Relative activity (%) xyl 3 [4] [%] | Relative activity (%) xyl 4 [5] [%] | Effect on activity of xyl 1a (in words) [1] | Effect on activity of xyl 2 (in words) [3] | Effect on activity of xyl 3 (in words) [4] | Effect on activity of xyl 4 (in words) [5]
O=C(O)c1cc[c]([Hg][OH])cc1 [PHMB, p-Hydroxymercury-benzoate] | 100 | completely inactivated | 0 | 90 | 96 | 95 |  |  |  | 
O=S(=O)(F)Cc1ccccc1 [PMSF, Phenylmethylsulfonylfluoride] | 95 | did not influence the activity | 87 | 100 | 100 | 100 | did not influence the activity | did not influence the activity | did not influence the activity | did not influence the activity
N-Bromosuccinamide | 0 | totally inactivated | 0 | 0 | 0 | 0 | totally inactivated | totally inactivated | totally inactivated | totally inactivated
